Bridge positions count the residues as written; N and C are the ends. Square brackets hold non-standard residues; d marks the D form. Peptide text beside a SMILES is read from it. NMeF = CN[C@@H](Cc1ccccc1)C(=O)O; Cha = N[C@@H](CC1CCCCC1)C(=O)O; dDap = NC[C@@H](N)C(=O)O; Aib = CC(C)(N)C(=O)O; βAla = NCCC(=O)O
Key:
NPFF1 receptor = target: T1, NPFF1 receptor (Homo sapiens, UniProt Q9GZQ6); test: cAMP functional experiment, NPFF1 receptor (forskolin-induced cAMP accumulation); assay type: cell-based
T1 construct: expressed in transfected cells; host or cells: HEK293
Description: (§1) The agonistic activity of the cyclopeptide molecule of the present invention against Mu-opioid receptor, Delta-opioid receptor, Kappa-opioid receptor, NPFF1 receptor and NPFF2 receptor was evaluated by detecting the regulation of the cyclopeptide molecule of the present invention on the intracellular accumulation of cyclic adenosine monophosphate (cAMP) induced by Forskolin in HEK293 cells stably expressing these five receptors. The experimental method was: the cells were seeded in 24 well plates with 120000 cells per well, and were cultured for more than 20 hours. At the beginning of the experiment, the culture medium in the culture dish was suck out, and then 500 μL of preheated serum-free medium containing 1 mM of IBMX was added, the mixture was incubated at 37° C. for 10 minutes. Then each 10 μL of the drug to be tested and 10 μM of forskolin (final concentration) were added to each well. The mixture was incubated at 37° C. for 30 minutes. After incubation, all the liquid was suck out from the culture dish, 500 μL of 0.2 N hydrochloric acid was added to each well, the mixture was incubated at room temperature for 30 minutes to promote cell lysis. After lysis was complete, NaOH was added to neutralize the hydrochloric acid solution used for lysis. Then all the liquid was suck out from the culture dish into centrifuge tubes, the liquid was centrifuged at 12000 rpm for 2 minutes. 50 μL was taken to a clean centrifuge tube, 100 μL of 60 μg/μL PKA was added, and 100 μL of TE cAMP buffer was added to the blank control group (B). Another 50 μL of 0.5 μ Ci[^3H]cAMP was added to each of the above centrifuge tubes, the mixture was quickly mixed and incubated at 4° C. for more than 2 hours. After incubation, another 100 μL of activated carbon suspension was added to each tube, the mixture was vortex agitated evenly, placed in an ice bath for 1 minute, centrifuged at 5000 rpm for 4 minutes. 200 μL of supernatant after centrifugation in each tube was suck out to a 24 well plate, with an additional 700 μL of scintillator liquid added per well, then the 24 well plate was sealed with adhesive film, placed for 3 hours, then placed on the scintillation instrument for measurement.
(§2) The inhibitory effect of cAMP was represented by the percentage (% control) of drug inhibition of intracellular cAMP accumulation induced by Forskolin, wherein % control=(cAMP content when treated with Forskolin−cAMP content when Forskolin co-treated with the test drug)/(cAMP content when treated with Forskolin−cAMP content when treated with solvent). The related % control data was represented by mean±S.E.M. The dose-effect relationship of the drug was statistically analyzed using a nonlinear regression model, and the IC50 values of the multi-target cyclopeptide molecule on inhibition of Forskolin induced intracellular cAMP accumulation were calculated using the statistical software GraphPad Prism version 5.0.

Delta-opioid receptor = target: T2, Delta-opioid receptor (Homo sapiens, UniProt P41143); test: cAMP functional experiment, Delta-opioid receptor (forskolin-induced cAMP accumulation); assay type: cell-based
T2 construct: expressed in transfected cells; host or cells: HEK293
Description: as §1, §2

NPFF2 receptor = target: T3, NPFF2 receptor (Homo sapiens, UniProt Q9Y5X5); test: cAMP functional experiment, NPFF2 receptor (forskolin-induced cAMP accumulation); assay type: cell-based
T3 construct: expressed in transfected cells; host or cells: HEK293
Description: as §1, §2

Kunming male mice [1] = test: Photothermal tail flick experiment, subcutaneous injection; assay type: in vivo; settings: photothermal tail flick
Description: (§3) Two administration methods were used: peripheral subcutaneous administration and oral administration. Subsequently, the analgesic activity of the drug was studied using an acute pain model of photothermal tail flick in mice.
Subcutaneous administration on the back was chosen for subcutaneous administration (s.c.). A sterile 1 mL syringe was used and the drug with the volume of 0.1 mL/10 g was injected for administration. The back skin was grasped with the right hand, the needle was tilted in, and the drug was injected subcutaneously into the mouse's back. After the needle was inserted, shook it left and right, and observe to confirm that the needle had indeed entered the subcutaneous area to prevent the needle from puncturing the skin and leaking the drug.
(§4) The photothermal tail flick experiment is based on the experimental method summarized by D'Amour and Smith to optimize the experimental parameters. The experiment selected Kunming male mice with body weigh 21±2 g, and ambient temperature controlled at 22±2° C. The experimental mice were allowed to drink water freely and were moved from the breeding room to the experimental area for adaptation for 30 minutes before starting the experiment. Then the mice were grab with the right hand and the tail hang freely. Then the mice's tail were placed on a radiation light source, 2-3 mm away from the mice tail. The intensity of radiation heat was adjusted to the tail flick time of mice being 3-5 s, which is the basic pain threshold of photothermal tail flick. The irradiation time of the mice tail should not exceed 10 s to prevent scalding of the mice tail, which was the maximum latency for photothermal tail flick. After administration, time points of 10, 20, 30, 45, 60, 90, 120, 180, 240, 300, 360, and 420 minutes were selected to measure the tail flick latency of mice after administration.
(§5) The analgesic effect of drugs was generally evaluated using the maximum analgesic effect MPE (%), MPE (%)=100×[(pain threshold after administration−basic pain threshold)/(10 seconds−basic pain threshold)]. 50% effective dose (ED50) refers to the corresponding drug dose that causes a 50% effect. ED50 and 95% confidence interval were calculated using MPE (%) and the drug concentration that achieves the maximum analgesic effect MPE (%) by the statistical software GraphPad Prism 5.0. The difference in analgesic effects was statistically analyzed using one-way ANOVA (Dunnett test), *P<0.05, **P<0.01, and ***P<0.001 indicated significance of the difference between the group with only drug injected and the saline group.

Kappa-opioid receptor = target: T4, Kappa-opioid receptor (Homo sapiens, UniProt P41145); test: cAMP functional experiment, Kappa-opioid receptor (forskolin-induced cAMP accumulation); assay type: cell-based
T4 construct: expressed in transfected cells; host or cells: HEK293
Description: as §1, §2

Mu-opioid receptor = target: T5, Mu-opioid receptor (Homo sapiens, UniProt P35372); test: cAMP functional experiment, Mu-opioid receptor (forskolin-induced cAMP accumulation); assay type: cell-based
T5 construct: expressed in transfected cells; host or cells: HEK293
Description: as §1, §2

Kunming male mice [2] = test: Photothermal tail flick experiment, oral administration; assay type: in vivo; settings: tail flick
Description: as §3
1 mL sterile syringe was used for oral administration (p.o.), the pinhead was replaced with a mouse gastric lavage needle, and […] of the drug was orally administered. The skin on the neck and back of the mouse was grasped with the left hand with the abdomen facing upwards. Noted that the mouse's entire body was fixed to vertical, which was beneficial for oral gavage. A gastric lavage needle (No. 12 needle and 1 mL syringe) was held in the right hand and was inserted to the esophagus along the upper jaw which is pressed the tongue tightly from the corner of the mouse's mouth. Gastric lavage fluid can be injected when the needle inserted 2.5 cm. The inserting length of the needle should be determined through practice in advance, as there is a sense of falling into a hole after the needle is inserted. If the injection position was appropriate, it should be very smooth. […] This can cause immediate death of the mouse after gavage.
as §4, §5

[3] = morphine, reference method; cited from earlier work

T2 sequence (P41143 whole entry): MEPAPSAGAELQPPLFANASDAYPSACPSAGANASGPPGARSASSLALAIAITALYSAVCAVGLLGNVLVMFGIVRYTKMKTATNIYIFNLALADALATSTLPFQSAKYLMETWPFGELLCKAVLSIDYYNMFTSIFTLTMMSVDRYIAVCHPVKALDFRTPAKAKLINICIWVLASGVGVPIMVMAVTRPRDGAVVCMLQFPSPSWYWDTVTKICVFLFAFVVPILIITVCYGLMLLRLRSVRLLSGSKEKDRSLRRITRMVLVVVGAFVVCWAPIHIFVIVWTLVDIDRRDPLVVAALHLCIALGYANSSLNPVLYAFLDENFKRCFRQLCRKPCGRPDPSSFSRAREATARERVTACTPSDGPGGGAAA
T4 sequence (P41145 whole entry): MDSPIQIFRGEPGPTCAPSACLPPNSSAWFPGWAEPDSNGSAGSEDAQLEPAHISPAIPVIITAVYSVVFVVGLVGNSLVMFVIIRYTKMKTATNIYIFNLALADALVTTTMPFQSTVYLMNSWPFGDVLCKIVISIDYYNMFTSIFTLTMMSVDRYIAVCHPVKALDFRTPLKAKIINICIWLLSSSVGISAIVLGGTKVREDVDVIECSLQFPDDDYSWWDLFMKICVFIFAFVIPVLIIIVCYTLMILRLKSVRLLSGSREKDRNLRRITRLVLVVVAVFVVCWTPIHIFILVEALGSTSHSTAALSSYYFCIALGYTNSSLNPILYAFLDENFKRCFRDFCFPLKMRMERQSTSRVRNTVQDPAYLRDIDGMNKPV
T5 sequence (P35372 whole entry): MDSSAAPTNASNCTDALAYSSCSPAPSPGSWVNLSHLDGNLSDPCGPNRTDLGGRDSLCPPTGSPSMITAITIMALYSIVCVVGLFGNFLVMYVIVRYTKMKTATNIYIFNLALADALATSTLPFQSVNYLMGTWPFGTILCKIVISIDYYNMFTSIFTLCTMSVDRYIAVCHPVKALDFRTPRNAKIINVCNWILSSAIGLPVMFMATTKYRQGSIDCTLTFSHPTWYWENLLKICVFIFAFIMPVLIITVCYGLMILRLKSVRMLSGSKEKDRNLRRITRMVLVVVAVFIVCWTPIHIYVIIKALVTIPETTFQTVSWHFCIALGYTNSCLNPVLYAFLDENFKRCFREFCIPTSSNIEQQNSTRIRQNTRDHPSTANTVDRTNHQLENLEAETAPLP
T1 sequence (Q9GZQ6 whole entry): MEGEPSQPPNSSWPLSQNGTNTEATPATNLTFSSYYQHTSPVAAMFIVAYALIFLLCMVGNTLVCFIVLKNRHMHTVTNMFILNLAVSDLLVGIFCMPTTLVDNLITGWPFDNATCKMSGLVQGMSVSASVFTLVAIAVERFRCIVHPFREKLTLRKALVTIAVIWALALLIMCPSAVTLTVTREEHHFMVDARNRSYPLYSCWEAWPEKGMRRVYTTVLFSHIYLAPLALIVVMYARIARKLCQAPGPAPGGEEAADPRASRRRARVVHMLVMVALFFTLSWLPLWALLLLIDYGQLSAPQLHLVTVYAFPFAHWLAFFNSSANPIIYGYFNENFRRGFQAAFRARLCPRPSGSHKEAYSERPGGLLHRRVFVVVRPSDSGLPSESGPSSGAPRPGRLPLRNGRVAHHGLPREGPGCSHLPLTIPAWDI
T3 sequence (Q9Y5X5 whole entry): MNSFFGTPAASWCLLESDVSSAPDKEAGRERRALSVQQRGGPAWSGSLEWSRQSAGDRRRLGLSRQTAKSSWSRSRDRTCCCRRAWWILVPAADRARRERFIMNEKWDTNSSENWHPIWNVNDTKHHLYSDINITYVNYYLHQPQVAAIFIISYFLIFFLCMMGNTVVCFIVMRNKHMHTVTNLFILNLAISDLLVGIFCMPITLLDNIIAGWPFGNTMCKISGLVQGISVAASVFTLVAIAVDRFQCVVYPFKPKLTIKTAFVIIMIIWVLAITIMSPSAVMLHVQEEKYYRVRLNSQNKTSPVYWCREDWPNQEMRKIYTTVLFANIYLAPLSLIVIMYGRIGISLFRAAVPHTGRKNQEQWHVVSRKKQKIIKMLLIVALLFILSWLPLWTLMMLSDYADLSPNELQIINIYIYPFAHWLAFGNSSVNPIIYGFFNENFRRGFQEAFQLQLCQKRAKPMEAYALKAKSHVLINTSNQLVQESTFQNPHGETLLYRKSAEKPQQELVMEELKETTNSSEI

CN1C(=O)CNC(=O)[C@H](NC(=O)[C@@H](N)Cc2ccc(O)cc2)CCC(=O)NCCCC[C@@H](C(=O)N2CCC[C@H]2C(=O)N[C@@H](CCC(N)=O)C(=O)N[C@@H](CCCNC(=N)N)C(=O)N[C@@H](Cc2ccccc2)C(N)=O)NC(=O)[C@@H]1Cc1ccccc1 [Compound 7, Tyr-c^[2,5][D-Glu-Gly-NMe-Phe-Lys]-Pro-Gln-Arg-Phe-NH2] (H-Y[dE]G[NMeF]KPQRF-NH2; lactam 2-5)
melting point: 182 to 184 °C

CN1C(=O)CNC(=O)[C@H](NC(=O)[C@@H](N)Cc2ccc(O)cc2)CNC(=O)C[C@@H](C(=O)N2CCC[C@H]2C(=O)N[C@@H](CCC(N)=O)C(=O)N[C@@H](CCCNC(=N)N)C(=O)N[C@@H](Cc2ccccc2)C(N)=O)NC(=O)[C@@H]1Cc1ccccc1 [Compound 10, Tyr-c^[2,5][D-Dap-Gly-NMe-Phe-Asp]-Pro-Gln-Arg-Phe-NH2] (H-Y[dDap]G[NMeF]DPQRF-NH2; lactam 2-5)
IC50 (NPFF1 receptor): 0.0901 µM | IC50 (Delta-opioid receptor): 0.374 µM | IC50 (NPFF2 receptor): 0.349 µM | ED50 value (95% confidence interval), analgesic activity (Kunming male mice [1]): 15.0 (13.6 to 16.5) μg/kg | IC50 (Kappa-opioid receptor): 0.136 µM | IC50 (Mu-opioid receptor): 0.238 µM | Maximum analgesic time (Kunming male mice [2]; oral administration at the maximum analgesic dose): 30 min | analgesic duration (Kunming male mice [2]; oral administration): 240 min

CN1C(=O)CNC(=O)[C@H](NC(=O)[C@@H](N)Cc2ccc(O)cc2)CCCCNC(=O)C[C@@H](C(=O)N2CCC[C@H]2C(=O)NCCC(=O)N[C@@H](CCCNC(=N)N)C(=O)N[C@@H](CC2CCCCC2)C(N)=O)NC(=O)[C@@H]1Cc1ccccc1 [Compound 13, Tyr-c[D-Lys-Gly-NMe-Phe-Asp]-Pro-β-Ala-Arg-Cha-NH2] (H-Y[dK]G[NMeF]DP[βAla]R[Cha]-NH2; lactam 2-5)
melting point: 175 to 177 °C

CN1C(=O)CNC(=O)[C@H](NC(=O)[C@@H](N)Cc2ccc(O)cc2)CCCCNC(=O)C[C@@H](C(=O)N2CCC[C@H]2C(=O)NC(C)(C)C(=O)N[C@@H](CCCNC(=N)N)C(=O)N[C@@H](CC2CCCCC2)C(N)=O)NC(=O)[C@@H]1Cc1ccccc1 [Compound 14, Tyr-c^[2,5][D-Lys-Gly-NMe-Phe-Asp]-Pro-Aib-Arg-Cha-NH2] (H-Y[dK]G[NMeF]DP[Aib]R[Cha]-NH2; lactam 2-5)
melting point: 196 to 198 °C

CN1CC[C@]23c4c5ccc(O)c4O[C@H]2[C@@H](O)C=C[C@H]3[C@H]1C5 [morphine]
analgesic ED50 [3]: 1.68 mg/kg

Reference: US20240166690A1, “MULTI-TARGET CY[…] FOR OPIOID/NEUROPEPTIDE FF RECEPTORS, AND PREPARATION THEREFOR AND APPLICATION THEREOF” (SHANGHAI TIANCI LIFE SCIENCE DEVELOPMENT CO., LTD., priority 2021, published 2024)
